From ChEMBL document CHEMBL3885861, “Open TG-GATES”

Organism: Rattus norvegicus
Assay: Open TG-GATES - Regimen: Single
Format: toxicity, organism-based, Sprague-Dawley
Parameters: regimen Single, gender Male, age 6 weeks
Details: in vivo, po, 50 mg/kg, route gavage, dose level Low; for APTT / Bas / Eos / Fbg / Hb / Ht / Lym / MCH / MCHC / MCV / Mono / Neu / PT / Plat / RBC / Ret / WBC: tissue Blood; for KIDNEY_L / KIDNEY_R / KIDNEY_TOTAL: tissue Kidney; for LIVER: tissue Liver; for A/G / ALP / ALT / AST / BUN / CRE / Ca / Cl / DBIL / GLC / IP / K / LDH / Na / PL / RALB / TBIL / TC / TG / TP / gamma-GTP: tissue Plasma

`CC(=O)Oc1cc(C(C)C)c(OCCN(C)C)cc1C` [MOXISYLYTE] gave a TERMINAL_BW (3 h) of 210.1 g, an APTT (3 h) of 21.8 s and a Bas (3 h) of 0%. It also gave an Eos (3 h) of 1.2%, a Fbg (3 h) of 298.6 mg/dL and a Hb (3 h) of 13.1 g/dL. The Ht (3 h) was 38.6%, the Lym (3 h) was 80% and the MCH (3 h) was 21 pg. It also gave an MCHC (3 h) of 34%, an MCV (3 h) of 61.9 fL and a Mono (3 h) of 2.4%. It also gave a Neu (3 h) of 15.8%, a PT (3 h) of 16.3 s and a Plat (3 h) of 122 x10_4/uL. It also gave an RBC (3 h) of 624.4 x10_4/ul, a Ret (3 h) of 8.5% and a WBC (3 h) of 93.6 x10_2/uL. It also gave a KIDNEY_L (3 h) of 0.9 g, a KIDNEY_R (3 h) of 0.9 g and a KIDNEY_TOTAL (3 h) of 1.9 g. The LIVER (3 h) was 9.4 g, the A/G (3 h) was 1.2 and the ALP (3 h) was 1650.4 IU/L. It also gave an ALT (3 h) of 42.8 IU/L, an AST (3 h) of 80.2 IU/L and a BUN (3 h) of 13.8 mg/dL. It also gave a CRE (3 h) of 0.1 mg/dL, a Ca (3 h) of 10.8 mg/dL and a Cl (3 h) of 107.6 meq/L. It also gave a DBIL (3 h) of 0.002 mg/dL, a GLC (3 h) of 180.2 mg/dL and an IP (3 h) of 8.6 mg/dL. The K (3 h) was 4.5 meq/L, the LDH (3 h) was 254.2 IU/L and the Na (3 h) was 142.4 meq/L. The PL (3 h) was 134.8 mg/dL, the RALB (3 h) was 3 g/dL and the TBIL (3 h) was 0.018 mg/dL. The TC (3 h) was 72.6 mg/dL, the TG (3 h) was 70.2 mg/dL and the TP (3 h) was 5.4 g/dL. For the same compound, the gamma-GTP (3 h) was 1 IU/L, the TERMINAL_BW (6 h) was 210.4 g and the APTT (6 h) was 22.1 s. For the same compound, the Bas (6 h) was 0%, the Eos (6 h) was 0.8% and the Fbg (6 h) was 309.8 mg/dL. The Hb (6 h) was 13 g/dL, the Ht (6 h) was 37.8% and the Lym (6 h) was 77%. For the same compound, the MCH (6 h) was 21.3 pg, the MCHC (6 h) was 34.5% and the MCV (6 h) was 61.7 fL. The Mono (6 h) was 2.4%, the Neu (6 h) was 18.8% and the PT (6 h) was 15.9 s. For the same compound, the Plat (6 h) was 116 x10_4/uL, the RBC (6 h) was 612.6 x10_4/ul and the Ret (6 h) was 8.4%. The WBC (6 h) was 70 x10_2/uL, the KIDNEY_L (6 h) was 0.9 g and the KIDNEY_R (6 h) was 0.9 g. For the same compound, the KIDNEY_TOTAL (6 h) was 1.9 g, the LIVER (6 h) was 9 g and the A/G (6 h) was 1.3. For the same compound, the ALP (6 h) was 1379.6 IU/L, the ALT (6 h) was 35.8 IU/L and the AST (6 h) was 70.6 IU/L. The BUN (6 h) was 11 mg/dL, the CRE (6 h) was 0.1 mg/dL and the Ca (6 h) was 10.6 mg/dL. It also gave a Cl (6 h) of 107.4 meq/L, a DBIL (6 h) of 0.004 mg/dL and a GLC (6 h) of 181.4 mg/dL. It also gave an IP (6 h) of 9.2 mg/dL, a K (6 h) of 4.4 meq/L and an LDH (6 h) of 189 IU/L. The Na (6 h) was 141.4 meq/L, the PL (6 h) was 146.8 mg/dL and the RALB (6 h) was 3 g/dL. It also gave a TBIL (6 h) of 0.028 mg/dL, a TC (6 h) of 84.2 mg/dL and a TG (6 h) of 74 mg/dL. It also gave a TP (6 h) of 5.3 g/dL, a gamma-GTP (6 h) of 1 IU/L and a TERMINAL_BW (9 h) of 208.4 g. The APTT (9 h) was 20.8 s, the Bas (9 h) was 0% and the Eos (9 h) was 0.4%. It also gave a Fbg (9 h) of 309.8 mg/dL, a Hb (9 h) of 13.3 g/dL and a Ht (9 h) of 38.7%. For the same compound, the Lym (9 h) was 83.4%, the MCH (9 h) was 21.2 pg and the MCHC (9 h) was 34.4%. For the same compound, the MCV (9 h) was 61.8 fL, the Mono (9 h) was 1.4% and the Neu (9 h) was 14.2%. It also gave a PT (9 h) of 15.8 s, a Plat (9 h) of 122.4 x10_4/uL and an RBC (9 h) of 627 x10_4/ul. It also gave a Ret (9 h) of 8.1%, a WBC (9 h) of 81 x10_2/uL and a KIDNEY_L (9 h) of 0.9 g. For the same compound, the KIDNEY_R (9 h) was 0.9 g, the KIDNEY_TOTAL (9 h) was 1.8 g and the LIVER (9 h) was 8.6 g. The A/G (9 h) was 1.3, the ALP (9 h) was 1432 IU/L and the ALT (9 h) was 40.6 IU/L. For the same compound, the AST (9 h) was 71.2 IU/L, the BUN (9 h) was 12 mg/dL and the CRE (9 h) was 0.1 mg/dL. The Ca (9 h) was 10.6 mg/dL, the Cl (9 h) was 108.2 meq/L and the DBIL (9 h) was 0.012 mg/dL. The GLC (9 h) was 182.6 mg/dL, the IP (9 h) was 9.4 mg/dL and the K (9 h) was 4.3 meq/L. For the same compound, the LDH (9 h) was 242.6 IU/L, the Na (9 h) was 143 meq/L and the PL (9 h) was 144.8 mg/dL. It also gave an RALB (9 h) of 3.1 g/dL, a TBIL (9 h) of 0.018 mg/dL and a TC (9 h) of 82.6 mg/dL. The TG (9 h) was 84.2 mg/dL, the TP (9 h) was 5.6 g/dL and the gamma-GTP (9 h) was 1.2 IU/L. It also gave a TERMINAL_BW (24 h) of 221.4 g, an APTT (24 h) of 19.7 s and a Bas (24 h) of 0%. The Eos (24 h) was 1%, the Fbg (24 h) was 309 mg/dL and the Hb (24 h) was 13.2 g/dL. The Ht (24 h) was 38.3%, the Lym (24 h) was 79.4% and the MCH (24 h) was 21.2 pg. For the same compound, the MCHC (24 h) was 34.5%, the MCV (24 h) was 61.5 fL and the Mono (24 h) was 2.2%. It also gave a Neu (24 h) of 16.8%, a PT (24 h) of 15.8 s and a Plat (24 h) of 122.9 x10_4/uL. The RBC (24 h) was 622.4 x10_4/ul, the Ret (24 h) was 8.5% and the WBC (24 h) was 94.4 x10_2/uL. The KIDNEY_L (24 h) was 0.9 g, the KIDNEY_R (24 h) was 0.9 g and the KIDNEY_TOTAL (24 h) was 1.9 g. For the same compound, the LIVER (24 h) was 10.7 g, the A/G (24 h) was 1.2 and the ALP (24 h) was 1498.2 IU/L. For the same compound, the ALT (24 h) was 52.4 IU/L, the AST (24 h) was 89.6 IU/L and the BUN (24 h) was 18.4 mg/dL. For the same compound, the CRE (24 h) was 0.1 mg/dL, the Ca (24 h) was 11.1 mg/dL and the Cl (24 h) was 107 meq/L. For the same compound, the DBIL (24 h) was 0 mg/dL, the GLC (24 h) was 181.8 mg/dL and the IP (24 h) was 7.5 mg/dL. For the same compound, the K (24 h) was 4.4 meq/L, the LDH (24 h) was 271 IU/L and the Na (24 h) was 142 meq/L. The PL (24 h) was 163.4 mg/dL, the RALB (24 h) was 3.1 g/dL and the TBIL (24 h) was 0.002 mg/dL. For the same compound, the TC (24 h) was 84.8 mg/dL, the TG (24 h) was 117 mg/dL and the TP (24 h) was 5.8 g/dL. It also gave a gamma-GTP (24 h) of 1.2 IU/L.
